One experiment deals with Jeko1 TMEM30A−/− cells. Put plainly: Uptake/engulfment of pHrodo-labeled JeKo-1 PS+ (TMEM30A−/−) cells by CER T cells. It is filed as cell-based. The conditions noted are these: pHrodo label, in vitro co-culture. Here is the method:
FIG. 20: FACs and imaging-based detection of pHrodo dye-labeled tumor cell phagocytosis and endocytosis.
Statistical analysis was performed using 2-way ANOVA.

Another experiment relates to A2780 cells. The conditions noted are these: compared to untreated. Here is the method:
FIG. 34B: At 120 hours, the ratio of cells remaining in treated samples compared to untreated A2780 samples was quantified using the incucyte data from FIG. 34A. FIG. 34C: Proliferation of CER T cells in co-culture assays.
(§1) At day 0, media was exchanged and donor T cells from three subjects (FIG. 28) transduced with CER-1234, CER-1236, or control CER-1183 (FIG. 27A) were added at various effector:target ratios to A2780 cells treated with PARPi to assess chimeric Tim4 receptor-T cell activation, cytokine production, proliferation, and cytotoxic responses. Chimeric Tim4 receptor-T cells immunophenotyping and bulk supernatant analysis was performed on day 2 and day 5 following initiation of co-culture.
CER T-cell cytotoxic function was evaluated using the Incucyte® live-cell analysis system in co-culture assays with A2780 cells. A2780 cells engineered to constitutively express mCherry were pretreated with 1.5 μM olaparib, 0.5 μM niraparib or no drug for 96 hours. CER T cells (expanded for 6 days after transduction) in T-cell optimizer media containing IL-2, IL-7, and IL-15 were co-cultured with A2780 cells at an effector:target (E:T) ratio of 1:2 in the presence of the same concentrations of olaparib or niraparib.

Experiment [1] relates to A2780 ovarian cancer cells. The experiment is described as follows: Viability and phosphatidylserine exposure of A2780 cells treated with PARP inhibitors (annexin V). The experiment is classed as cell-based, human. Here is the method: Viability (FIG. 31A) and phosphatidylserine (PS) exposure (FIG. 31B) of A2780 cells treated with niraparib or olaparib (both at 0.25 to 6 μM) at 96 hours.
as §1
Phosphatidylserine exposure on A2780 ovarian cancer cells upon treatment with the small molecule PARP inhibitors niraparib or olaparib was evaluated by annexin v staining to determine the appropriate drug dose. Phosphatidylserine targeting Tim-4 CER constructs designed to enhance cytotoxicity and target-dependent tumor cell fragment uptake were engineered. […] CER-1250 has the same intracellular signaling domains as CER1236 but has a mutated IgV domain with AAAA substitution to abrogate phosphatidylserine binding. Niraparib (0.5 μM) and olaparib (1.5 μM) were used to expose phosphatidylserine on the surface of A2780 cells for CER T cell recognition and cytotoxicity, T-cell activation, and cytokine responses were evaluated. Uptake of antigen by CER-1236 T cells was modeled with human papilloma virus E7 antigen-expressing squamous carcinoma (SCC152) TMEM30A phospholipid flippase knockout cells. […] E7 antigen presentation by CER-1236 T cells was assayed by surface expression of HLA-DR, a marker of T cell activation, on autologous HLA-A2-restricted E7 TCR T cells.
The induction of surface phosphatidylserine expression on A2780 ovarian cells treated with the PARP inhibitors olaparib and niraparib was measured by flow cytometry (FC) using annexin V.

The subject of experiment [2] is REC-1 cells. Put plainly: Phagocytosis of pHrodo-labeled ibrutinib-treated REC-1 cells by CER T cells. It is filed as cell-based. The conditions noted are these: REC-1 pretreated 10 μM ibrutinib, 16 and 40 hours of co-culture. An excerpt:
FIG. 13A: Representative flow cytometry histograms showing engulfment of pHrodo red-labeled REC-1 target cells by CER1234, CER1161, and CER1183 T cells. FIG. 13B: Graphical summary of flow cytometry data showing engulfment of pHrodo red-labeled REC-1 target cells by CER1234, CER1161, and CER1183 T cells. * P<0.01, ** P<0.001, *** P<0.0001; mean+SD, n=4. FIG. 13C: Representative fluorescence microscopy images (at 40×) showing engulfment of pHrodo red-labeled REC-1 target cells by CER1234, CER1161, and CER1183 T cells. FIG. 13D: Engulfed pHrodo-green-labeled REC-1 tumor fragments co-localize into Lyso-tracker red-labeled lysosomes.
Phagocytosis was assessed in co-culture assays of REC-1 cells with CER T cells. […] The percentage of pHrodo red-positive cells was determined by flow cytometry after 16 or 40 hours of co-culture. The localization of tumor fragments in CER T-cell lysosomal compartments was assessed in a separate experiment with REC-1 cells labeled with pHrodo green; following co-culture, all cells were labeled with Lyso-tracker red. Visualization of engulfment was performed by fluorescence microscopy. 1-way ANOVA with Dunnett's post hoc test was performed compared with untransduced T cells.

Experiment [3] relates to REC-1 cells. Put plainly: CER T cell cytotoxicity against REC-1 mCherry cells with ibrutinib (Incucyte). The conditions noted are these: REC-1 cells. The experiment is classed as cell-based. An excerpt: FIG. 38: CER1236 T cells have enhanced and more complete cytotoxic effect against Ibrutinib-treated REC-1 MCL cells but not untreated REC-1 MCL cells.
Ibrutinib was washed off prior to co-culture with CER T cells. […] Total fluorescence of REC-1 mCherry cells decreased as cytotoxicity occurred.

Experiment [4] deals with REC-1 cells. Put plainly: T-cell activation markers PD-1 and 4-1BB in co-culture with REC-1 cells (flow cytometry). It is filed as cell-based. To be noted: co-culture with REC-1 cells in the presence of 0.5 μM ibrutinib, 96 hours. The procedure: FIGS. 15A-15B: Induction of Cell-Surface Markers of T-Cell Activation in Ibrutinib-Treated Co-Cultures of CER1183 and CER1234 T cells and REC-1 Target Cells. Samples depicted in bar graphs from left to right, untransduced, CER-1183, and CER-1234. FIG. 15A: PD-1 expression in co-cultures. FIG. 15B: 4-1BB expression in co-cultures.
T-cell activation markers programmed death-1 (PD-1) and 4-1BB were evaluated on viable CD3+ T cells by flow cytometry using commercially available fluorochrome-conjugated antibodies. […] Assays were conducted 96 hours after initiation of co-culture of CER T cells with REC-1 cells.

The next experiment deals with phosphatidylserine (PS). Put plainly: Single induction plate assay: IFN-γ by CER T cells on plate-bound phosphatidylserine (ELISA). The experiment is classed as cell-based. To be noted: plate-bound PS. An excerpt: FIGS. 19A-19C: CER T cells are activated and produce IFN-γ in response to phosphatidylserine engagement in a cell-free in vitro system. FIG. 19A: IFN-γ production in response phosphatidylserine (PS). IFN-γ production was induced in CER-1236 and CER-1234 T cells stimulated with PS (FIG. 19A), but not with phosphatidylethanolamine (PE) (FIG. 19B). […] FIG. 19C: CER1236 T cells are capable of recursive stimulation in vitro. Recursive IFN-γ induction with 3 serial stimulations at the indicated time points following a 24-hour rest after the first stimulation.
FIG. 33A-33C: CER T cells are activated and produce IFN-γ in response to phosphatidylserine engagement in a cell-free in vitro system. FIG. 33A: IFN-γ production in response phosphatidylserine (PS). IFN-γ production was induced in CER-1236 and CER-1234 T cells stimulated with PS (FIG. 33A), but not with phosphatidylethanolamine (PE) (FIG. 33B). […] FIG. 33C: CER1236 T cells are capable of recursive stimulation in vitro. Recursive IFN-γ induction with 3 serial stimulations at the indicated time points following a 24-hour rest after the first stimulation.
FIG. 44 are graphs showing IFNγ production in CER1234 T cells (left) or CER1236 T cells (right) from three donors in response to titrating doses of plate-bound phosphatidylserine.
FIG. 45 are graphs showing IFNγ production in CER1234 T cells or CER1236 T cells by donor in response to increasing doses of plate-bound phosphatidylserine.
FIG. 46 are graphs showing IFNγ production in CER1234 T cells or CER1236 T cells by donor in response to increasing doses of plate-bound phosphatidylserine at day 14 post-thaw.
FIG. 47 are graphs showing T cell expansion (left), IFNγ production (center), and cell viability (right) in CER1236 T cells in response to increasing doses of plate-bound phosphatidylserine.
FIG. 48 are graphs showing T cell expansion (left), IFNγ production (center), and cell viability (right) in CER1234 T cells in response to increasing doses of plate-bound phosphatidylserine.
(§2) CER T-cell activation was assessed by measuring induction of IFN-gamma by plate- and cell-based assays. Single induction plate assay: varying concentrations of phosphatidylserine (PS) or phosphatidylethanolamine (PE), a control membrane phospholipid not recognized by wild type TIM-4 (wtTIM-4), were coated onto high-binding tissue culture plates. CER T cells were added and IFN-γ levels were measured 24 hours after ligand exposure by ELISA. EC50 concentrations were determined by nonlinear regression (agonist vs. response-variable slope (4 parameters)). Induction by recursive stimulation plate assay: CER T cells were added to phosphatidylserine coated plates (2.5-20 μg/mL PS coating). Five days later, CER T cells were transferred to uncoated plates with fresh T cell optimizer media for 24 hours. Then, CER T cells were transferred again to a fresh PS coated plate. Supernatant was collected to assess IFN-γ induction by ELISA at various timepoints during re-stimulation (24, 72, and 120 hours). Cell-based assay: cytokine induction was assessed by multiparametric ELISA using conditioned supernatants harvested after 120 hours from the cytotoxicity assay described below.
T cells obtained from three different donors were transduced with CER1234 or CER1236 and incubated on titrating doses of plate-bound phosphatidylserine.
24 hour IFNγ stimulation by plate-bound phosphatidylserine aligns with day 5 post-activation expansion for CER1236 T cells. […] 24 hour IFNγ stimulation by plate-bound phosphatidylserine aligns with day 5 post-activation expansion for CER1234 T cells.

The test system of experiment [5] is REC-1 cells. The experiment is described as follows: Cytokine induction in CER T / REC-1 co-cultures (multiparametric ELISA). The experiment is classed as cell-based. To be noted: co-culture with REC-1 cells, 0.5 μM ibrutinib, 96 hours. The procedure:
FIGS. 16A-16H: Induction of Cytokines in Ibrutinib-Treated Co-Cultures of CER1183 and CER1234 T cells and REC-1 Target Cells. Samples depicted in bar graphs from left to right, untransduced, CER-1183, and CER-1234. FIG. 16A: TNFα induction. FIG. 16B: IL-2 induction. FIG. 16C: IFNγ. FIG. 16D: IL-5 induction. FIG. 16E: IL-6 induction. FIG. 16F: IL-10 induction. FIG. 16G: IL-4 induction. FIG. 16H: granzyme B induction.
Cytokine induction was assessed by multiparametric ELISA using conditioned supernatants harvested after 96 hours in the cytotoxicity assay described above.
as §2
A general note: ELISA stands for enzyme-linked immunosorbent assay.

Results on five molecules are retold here after patent US20250127896A1, “CHIMERIC TIM4 RECEPTORS AND USES THEREOF” (CERO THERAPEUTICS HOLDINGS, INC., priority 2021, published 2025).

Consider `CO/C1=C\C(C)=C\[C@@H](C)[C@@H](O)[C@@H](C)C/C(C)=C/C=C/[C@H](OC)[C@@H]([C@@H](C)[C@@H](O)[C@H](C)[C@@]2(O)C[C@@H](O)[C@H](C)[C@@H](C(C)C)O2)OC1=O` [Bafilomycin A, reference compound], for which, in the experiment with Jeko1 TMEM30A−/− cells, the “uptake/engulfment of JeKo-1 PS+ (TMEM30A−/−) tumor cell fragments” value was “blocked tumor cell fragment uptake”.

On to `C=C1[C@@H](C)[C@H]2[C@H](Cc3ccccc3)NC(=O)[C@]23[C@H](OC(C)=O)/C=C/[C@@](C)(O)C(=O)[C@@H](C)C/C=C/[C@H]3[C@@H]1O` [Cytochalasin D, reference compound], for which the “uptake/engulfment of JeKo-1 PS+ (TMEM30A−/−) tumor cell fragments” value in the experiment on Jeko1 TMEM30A−/− cells was “blocked tumor cell fragment uptake”.

On to `O=C(c1cc(Cc2n[nH]c(=O)c3ccccc23)ccc1F)N1CCN(C(=O)C2CC2)CC1` [olaparib], for which, in the experiment on A2780 cells, the “A2780 cells eliminated, single agent” value was 34%. The “effective concentration that killed 25% cells (EC25)” value in experiment [1] (A2780 cells) turned out to be 1500 nM. Besides, the “phosphatidylserine exposure on viable A2780 cells” value in experiment [1] (subtherapeutic doses, 96 hours) is recorded as “induce phosphatidylserine exposure on viable A2780 cells”.

Regarding “CER1161: Tim4 binding domain-CD28tm-CD28icd-CD3zICD, SEQ ID NO:21”, in the experiment on REC-1 cells [2], the “engulfment of pHrodo red+ target cells” value is “increased engulfment of pHrodo red+target cells relative to untransduced T cells”.

B1: CER 1183: wildtype human Tim4, SEQ ID NO:20; control molecule lacking intracellular T-cell signaling domains (protein)
chain: MSKEPLILWLMIEFWWLYLTPVTSETVVTEVLGHRVTLPCLYSSWSHNSNSMCWGKDQCPYSGCKEALIRTDGMRVTSRKSAKYRLQGTIPRGDVSLTILNPSESDSGVYCCRIEVPGWFNDVKINVRLNLQRASTTTHRTATTTTRRTTTTSPTTTRQMTTTPAALPTTVVTTPDLTTGTPLQMTTIAVFTTANTCLSLTPSTLPEEATGLLTPEPSKEGPILTAESETVLPSDSWSSVESTSADTVLLTSKESKVWDLPSTSHVSMWKTSDSVSSPQPGASDTAVPEQNKTTKTGQMDGIPMSMKNEMPISQLLMIIAPSLGFVLFALFVAFLRGKLMETYCSQKHTRLDYIGDSKNVLNDVQHGREDEDGLFTL
In the case of B1, the “tumor cell killing in combination with ibrutinib” value with REC-1 cells [3] is “no additive effect with ibrutinib”. Besides, in the experiment with REC-1 cells [4], the “PD-1 and 4-1BB expression on the T-cell surface” value is “not increased”. Besides, in the experiment on phosphatidylserine (PS), the “IFN-γ production in response to phosphatidylserine” value is “did not induce IFN-γ”. In the experiment with REC-1 cells [5], the “cytokine induction: TNF-α, IFN-γ, IL-10, IL-5, granzyme B” value is recorded as “not induced”.
